Structures are written as SMILES. Where two headings read alike, the source gives them in different places.

Series [1] concerns amnesia induced by scopolamine. In words: multiple-trial passive avoidance: mnemic retention, amnesia induced by scopolamine.
Series [2] has as its system longitudinal muscles of the ileum contracted by histamine. In words: potentiation of the myorelaxing effect of isoprenaline on the ileum. To be noted: with isoprenaline 10^-7 mole/l; histamine 3.2 μmoles/l. The series is classed as cell-based, Dunkin-Hartley guinea-pigs. The method in brief: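 Isolated ileal longitudinal muscle contracted by repeated histamine injections; test compound injected after wash, and the next histamine contraction compared with the mean of three preceding control contractions to give % inhibition. Potentiation cycle: % inhibition by compound alone at a given dose, then with isoprenaline co-injected, repeated per dose.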

Series [3] concerns plantar edema induced by immune complexes. The series can be described thus: "reverse passive Arthus" (RPA) test, anti-inflammatory and anti-edema activity. The series is classed as in vivo, Sprague-Dawley rat. As to conditions: Rattus norvegicus, intravenous. The method in brief: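 Rats received subplantar anti-ovalbumin serum in the right hind paw plus i.v. ovalbumin 1 ml/kg (25 mg/ml). Compound was given i.v. 30 s before induction, at ≥3 doses, 6 rats/dose. Paw volume was measured by plethysmometry at 3 and 5 h, and ID30 (μmole/kg) is the dose reducing edema 30% versus controls.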

A further series can be described thus: toxicity, Irwin's test. The series is classed as in vivo. As to conditions: i.p.; death of two animals out of three within 48 hours. The method, then:
Progressive doses of the compound to be tested are administered intraperitoneally to groups of three mice until the lethal dose is reached (dose which causes the death of two animals out of three within 48 hours).

For series [4], the system named is bronchospasm induced by acetylcholine. In words: bronchospasmolytic activity (Konzett and Roessler), bronchospasm induced by acetylcholine. The series is classed as in vivo, Dunkin-Hartley guinea-pig. As to conditions: Cavia porcellus; intravenous; acetylcholine-induced bronchospasm; read-out: Doses (ID50), Acetylcholine. The method in brief: (§1)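 Anesthetized (urethane), curarized, ventilated Dunkin-Hartley guinea-pigs with endotracheal pressure recorded after histamine, serotonin or acetylcholine challenge. Compound given i.v. 2 min before spasmogen, then in 3–4 increasing cumulative doses at 15-min intervals; six animals per compound and spasmogen.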

The test system of series [5] is bronchospasm induced by serotonin. In words: bronchospasmolytic activity (Konzett and Roessler), bronchospasm induced by serotonin. The series is classed as in vivo, Dunkin-Hartley guinea-pig. To be noted: Cavia porcellus; intravenous; serotonin-induced bronchospasm; read-out: Doses (ID50), Serotonin. The method in brief:
as §1

The subject of series [6] is anaphylactic release of histamine, guinea-pig lung sections. In words: inhibition of the anaphylactic release of histamine (proper effect). The series is classed as cell-based, Dunkin-Hartley guinea-pigs. To be noted: Cavia porcellus, in vitro, read-out: Minimum inhibitory dose (MID).
Where [7] appears, read: 3 hours after induction of the Arthus reaction, read-out: Dose (ID30), 3 hours.
Setting [8] is: 5 hours after induction of the Arthus reaction, read-out: Dose (ID30), 5 hours.
Where [9] appears, read: 4 hours, 1.0 mg/kg i.p. + 0.5 mg scopolamine.
The mark [10] stands for this setting: 24 hours, 1.0 mg/kg i.p. + 0.5 mg scopolamine.
The mark [11] stands for this setting: 28 hours, 1.0 mg/kg i.p. + 0.5 mg scopolamine.
Where [12] appears, read: time 0, 1.0 mg/kg i.p. + 0.5 mg scopolamine.
Setting [13] is: 4 hours, 2.8 mg/kg i.p. + 0.5 mg scopolamine.
Where [14] appears, read: 24 hours, 2.8 mg/kg i.p. + 0.5 mg scopolamine.
Setting [15] is: 28 hours, 2.8 mg/kg i.p. + 0.5 mg scopolamine.
Where [16] appears, read: time 0, 2.8 mg/kg i.p. + 0.5 mg scopolamine.

Consider `CCCc1nc(NC2CC2)nc(N2CCOCC2)n1` [Compound 1, 2-Cyclopropylamino-4-morpholino-6-n-propyl-1,3,5-triazine], for which the “Period of remaining on the mat, group 4” value in series [1] (4 hours, 3.0 mg/kg i.p. + 0.5 mg scopolamine) turned out to be 42.8 s; in series [1] (24 hours, 3.0 mg/kg i.p. + 0.5 mg scopolamine), 77.2 s; in series [1] (28 hours, 3.0 mg/kg i.p. + 0.5 mg scopolamine), 114.6 s; in series [1] (time 0, 3.0 mg/kg i.p. + 0.5 mg scopolamine), 19.2 s. The “Minimum potentiating dose (MPD)” value in series [2] amounted to 0.032 µmol/L. For the same compound, the ED30 in series [3] (setting [7]) and in series [3] (setting [8]) was 2 µmol/kg throughout. Also, the Lethal dose in the series “toxicity, Irwin's test” is 898 mg/kg. In addition, the ED50 in series [4] came to 0.1 µmol/kg; in series [5], 0.01 µmol/kg. Further, the minimal effective concentration in series [6] stood at 0.1 µM.

For the compound `CCc1nc(NC2CC2)nc(N2CCOCC2)n1` [Compound 2], the “Period of remaining on the mat, group 4” value is 18.9 s in series [1] (setting [9]), 24.3 s in series [1] (setting [10]), 36.5 s in series [1] (setting [11]) and 7.9 s in series [1] (setting [12]). The “Minimum potentiating dose (MPD)” value in series [2] came to 1.0 µmol/L. Besides, the ED30 in series [3] (setting [7]) was determined as 2.3 µmol/kg; in series [3] (setting [8]) it was 0.7 µmol/kg. For the same compound, in “toxicity, Irwin's test”, the Lethal dose is given as 285 mg/kg. Further, the ED50 in series [4] and in series [5] was 0.5 µmol/kg throughout. Also, the minimal effective concentration in series [6] was 1 µM.

For the compound `C1CN(c2nc(NC3CC3)nc(C3CC3)n2)CCO1.Cl` [Compound 3, 2-cyclopropyl-4-cyclopropylamino-6-morpholino-1,3,5-triazine hydrochloride], the “Period of remaining on the mat, group 4” value in series [1] (setting [9]) came out at 35.5 s; in series [1] (setting [10]), 105.0 s; in series [1] (setting [11]) it was 121.0 s; in series [1] (setting [12]), 6.5 s. In addition, in series [2], the “Minimum potentiating dose (MPD)” value stood at 0.032 µmol/L. Also, the ED30 in series [3] (setting [7]) was determined as 0.8 µmol/kg; in series [3] (setting [8]) it was 0.4 µmol/kg. In the series “toxicity, Irwin's test”, this compound showed a Lethal dose of 297.8 mg/kg. Further, the ED50 worked out at 0.07 µmol/kg in series [4] and 0.1 µmol/kg in series [5]. In addition, the minimal effective concentration in series [6] was found to be 0.032 µM.

On to `C1CC(c2nc(NC3CC3)nc(N3CCOCC3)n2)C1` [Compound 4, 2-cyclobutyl-4-cyclopropylamino-6-morpholino-1,3,5-triazine], for which the “Period of remaining on the mat, group 4” value in series [1] (setting [13]) was 44.5 s; in series [1] (setting [14]), 91.5 s; in series [1] (setting [15]) it was 106.6 s; in series [1] (setting [16]), 12.3 s. Moreover, the “Minimum potentiating dose (MPD)” value in series [2] amounted to 0.032 µmol/L. Moreover, the figures for the ED30 in series [3] (setting [7]) and in series [3] (setting [8]) were 9 µmol/kg and 10 µmol/kg, respectively. Also, the Lethal dose in the series “toxicity, Irwin's test” worked out at 165 mg/kg. The ED50 in series [4] and in series [5] was 0.03 µmol/kg each time. Further, the minimal effective concentration in series [6] amounted to 0.32 µM.

For `CCCc1nc(NC2CC2)nc(N2CCC(O)CC2)n1` [Compound 5], the “Period of remaining on the mat, group 4” value in series [1] (setting [13]) was found to be 34.2 s; in series [1] (setting [14]), 35.9 s; in series [1] (setting [15]), 73.3 s; in series [1] (setting [16]) it was 14.5 s. For the same compound, the “Minimum potentiating dose (MPD)” value in series [2] was determined as 1.0 µmol/L. Further, the ED30 in series [3] (setting [7]) was 3.1 µmol/kg; in series [3] (setting [8]), 27 µmol/kg. This compound had a Lethal dose in “toxicity, Irwin's test” of 277.4 mg/kg. The ED50 in series [4] and in series [5] was 0.1 µmol/kg each time. For the same compound, the minimal effective concentration in series [6] is 0.32 µM.

Take `CCCc1nc(NC2CC2)nc(N(CCO)CCO)n1` [Compound 6]: the “Period of remaining on the mat, group 4” value in series [1] (4 hours, […] i.p. + 0.5 mg scopolamine) is 11.7 s; in series [1] (24 hours, […] i.p. + 0.5 mg scopolamine) it was 24.8 s; in series [1] (28 hours, […] i.p. + 0.5 mg scopolamine), 28.7 s; in series [1] (time 0, […] i.p. + 0.5 mg scopolamine), 5.3 s. In series [2], the “Minimum potentiating dose (MPD)” value is 1.0 µmol/L. The ED30 amounted to 12 µmol/kg in series [3] (setting [7]) and 9 µmol/kg in series [3] (setting [8]). Also, in the series “toxicity, Irwin's test”, the Lethal dose is listed as 635.6 mg/kg. Besides, the ED50 in series [4] came to 0.3 µmol/kg; in series [5] it was 0.1 µmol/kg. The minimal effective concentration in series [6] stood at 1 µM.

As to `OCCN(CCO)c1nc(NC2CC2)nc(C2CC2)n1` [Compound 7], the “Period of remaining on the mat, group 4” value in series [1] (setting [13]) stood at 34.5 s; in series [1] (setting [14]), 94.0 s; in series [1] (setting [15]), 133.0 s; in series [1] (setting [16]), 9.8 s. In addition, in series [2], the “Minimum potentiating dose (MPD)” value was 0.32 µmol/L. Also, the ED30 in series [3] (setting [7]) is 7.7 µmol/kg; in series [3] (setting [8]), 11 µmol/kg. The compound also displayed a Lethal dose in “toxicity, Irwin's test” of 279.3 mg/kg. Also, the ED50 in series [4] amounted to 0.7 µmol/kg; in series [5], 0.4 µmol/kg. Also, the minimal effective concentration in series [6] stood at 0.32 µM.

On to `CCCc1nc(NC2CC2)nc(N2CC3CCC(C2)O3)n1` [Compound 11], for which the “Period of remaining on the mat, group 4” value in series [1] (4 hours, 3.3 mg/kg i.p. + 0.5 mg scopolamine) stood at 21.4 s; in series [1] (24 hours, 3.3 mg/kg i.p. + 0.5 mg scopolamine) it was 58.6 s; in series [1] (28 hours, 3.3 mg/kg i.p. + 0.5 mg scopolamine), 93.2 s; in series [1] (time 0, 3.3 mg/kg i.p. + 0.5 mg scopolamine), 10.7 s. Also, the “Minimum potentiating dose (MPD)” value in series [2] is 0.032 µmol/L. Moreover, the ED30 was 0.5 µmol/kg in series [3] (setting [7]) and 0.4 µmol/kg in series [3] (setting [8]). The compound also gave a Lethal dose in the series “toxicity, Irwin's test” of 325.8 mg/kg. Further, the ED50 turned out to be 0.09 µmol/kg in series [4] and 0.1 µmol/kg in series [5]. Also, in series [6], the minimal effective concentration is 1 µM.

For `CC(C)c1nc(NC2CC2)nc(N2CC3CCC(C2)O3)n1` [Compound 12], the “Period of remaining on the mat, group 4” value in series [1] (setting [9]) is 18.0 s; in series [1] (setting [10]), 51.1 s; in series [1] (setting [11]), 94.5 s; in series [1] (setting [12]), 3.6 s. For the same compound, the “Minimum potentiating dose (MPD)” value in series [2] came to 0.01 µmol/L. Moreover, the ED30 was 2.5 µmol/kg in series [3] (setting [7]) and 3 µmol/kg in series [3] (setting [8]). Moreover, the Lethal dose in the series “toxicity, Irwin's test” was 325.8 mg/kg. Further, the ED50 turned out to be 0.2 µmol/kg in series [4] and 0.06 µmol/kg in series [5]. Besides, the minimal effective concentration in series [6] is 0.1 µM.

Take `OC1CN(c2nc(NC3CC3)nc(C3CC3)n2)C1` [Compound 13]: the “Period of remaining on the mat, group 4” value was determined as 55.3 s in series [1] (4 hours, 2.5 mg/kg i.p. + 0.5 mg scopolamine); 92.5 s in series [1] (24 hours, 2.5 mg/kg i.p. + 0.5 mg scopolamine); 99.0 s in series [1] (28 hours, 2.5 mg/kg i.p. + 0.5 mg scopolamine); 7.7 s in series [1] (time 0, 2.5 mg/kg i.p. + 0.5 mg scopolamine). In addition, in series [2], the “Minimum potentiating dose (MPD)” value was determined as 1.0 µmol/L. Moreover, the ED30 in series [3] (setting [7]) amounted to 9 µmol/kg; in series [3] (setting [8]), 4 µmol/kg. This compound also gave a Lethal dose in “toxicity, Irwin's test” of 247.3 mg/kg. For the same compound, the ED50 in series [4] was determined as 1.3 µmol/kg; in series [5], 0.6 µmol/kg. Besides, in series [6], the minimal effective concentration came to 1 µM.

On to `COC1CN(c2nc(NC3CC3)nc(C3CC3)n2)C1` [Compound 14], for which the “Period of remaining on the mat, group 4” value in series [1] (4 hours, 2.6 mg/kg i.p. + 0.5 mg scopolamine) is 36.3 s; in series [1] (24 hours, 2.6 mg/kg i.p. + 0.5 mg scopolamine), 73.9 s; in series [1] (28 hours, 2.6 mg/kg i.p. + 0.5 mg scopolamine), 139.1 s; in series [1] (time 0, 2.6 mg/kg i.p. + 0.5 mg scopolamine), 11.7 s. For the same compound, in series [2], the “Minimum potentiating dose (MPD)” value came to 1.0 µmol/L. Also, the figures for the ED30 in series [3] (setting [7]) and in series [3] (setting [8]) were 16 µmol/kg and 12 µmol/kg, respectively. The compound also had a Lethal dose in the series “toxicity, Irwin's test” of 156.8 mg/kg. The ED50 in series [4] came out at 0.5 µmol/kg; in series [5] it was 0.2 µmol/kg. In addition, the minimal effective concentration in series [6] was determined as 1 µM.
